Read-outs that look alike come from different tables or passages of the source.
Tests used:
HSV-1 helicase-primase = target: T1, HSV-1 helicase-primase (Human herpesvirus 1, UniProt P10189+P10236); assay: HSV-1 DNA-dependent ATPase assay (inhibition of HSV-1 helicase-primase); type: biochemical
T1 construct: made in house; host or cells: Sf21 insect cells triply infected with recombinant baculoviruses (UL5, UL8, UL52)
Procedure, shortened: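 ATP hydrolysis was measured as inorganic phosphate (malachite green/molybdate, 650 nm) after 20 min at 34°. Reaction: 3 μg/mL purified Sf21-expressed UL5/UL8/UL52 helicase-primase, 25 μM single-stranded M13 DNA hybridized to 68-mer, 4 mM ATP, pH 7.5 HEPES buffer, 3.3% DMSO. Net absorbance change with and without inhibitor gave DNA-dependent ATPase activity.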

HSV-1 strain F or KOS = assay: Inhibition of herpes simplex virus (HSV-1) replication in cell culture (BHK-21 cells, glycoprotein C ELISA); type: cell-based
Procedure, shortened: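 Replication readout: ELISA for HSV-1 late glycoprotein C (mAb C11, peroxidase-OPD, 450 nm) on glutaraldehyde-fixed cells. Monolayers (~50,000 cells/well) were infected with strain F or KOS (MOI 0.05 PFU/cell), then incubated 24 h at 37° with compound in 2% FBS α-MEM. EC50 derived from % inhibition.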

HCMV (strain AD169) = assay: Inhibition of HCMV replication, plaque reduction assay (PRA, Hs-68 cells); type: cell-based, Human Cytomegalovirus (HCMV); conditions: read-out: PRA CMV EC50
Procedure, shortened: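 Hs-68 monolayers (80–90% confluent) were infected with ~50 PFU HCMV AD169 for 2 h at 37°, then given compound in DMEM/5% inactivated FBS, refreshed after 4 days and kept 4 more days. Plaques were counted after formaldehyde fixation and crystal violet staining. EC50 derives from percent plaque reduction versus untreated wells.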

[1] = Human alphaherpesvirus 1, BHK-21, Group 1 Table 1 entries
[2] = Human betaherpesvirus 5, AD169, Hs68, Group 1 Table 1 entries
[3] = Group 1 Table 2 entries (Q = CH2)
[4] = Human alphaherpesvirus 1, BHK-21, Group 1 Table 2 entries
[5] = Human betaherpesvirus 5, AD169, Hs68, Group 1 Table 2 entries

T1 sequence (P10192 whole entry): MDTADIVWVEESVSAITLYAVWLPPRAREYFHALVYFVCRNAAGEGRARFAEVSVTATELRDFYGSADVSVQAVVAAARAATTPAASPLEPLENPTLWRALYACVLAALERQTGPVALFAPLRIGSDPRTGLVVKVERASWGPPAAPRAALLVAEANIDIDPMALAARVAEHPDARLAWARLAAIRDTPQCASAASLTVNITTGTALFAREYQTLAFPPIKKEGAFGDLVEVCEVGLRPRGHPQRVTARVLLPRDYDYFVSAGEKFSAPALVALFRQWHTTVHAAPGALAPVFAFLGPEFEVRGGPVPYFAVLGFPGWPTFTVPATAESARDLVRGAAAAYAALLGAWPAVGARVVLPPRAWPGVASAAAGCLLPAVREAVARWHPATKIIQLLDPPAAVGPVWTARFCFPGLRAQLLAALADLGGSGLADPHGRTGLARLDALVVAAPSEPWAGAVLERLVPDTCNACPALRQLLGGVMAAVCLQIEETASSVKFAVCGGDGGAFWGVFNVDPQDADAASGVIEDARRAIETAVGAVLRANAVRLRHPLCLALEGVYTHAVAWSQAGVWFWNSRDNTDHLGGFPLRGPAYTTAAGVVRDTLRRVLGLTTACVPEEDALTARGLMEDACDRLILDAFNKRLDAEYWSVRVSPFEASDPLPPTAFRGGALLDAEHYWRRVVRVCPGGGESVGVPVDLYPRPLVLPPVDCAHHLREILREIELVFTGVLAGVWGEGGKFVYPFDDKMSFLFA
T1 sequence (P10236 whole entry): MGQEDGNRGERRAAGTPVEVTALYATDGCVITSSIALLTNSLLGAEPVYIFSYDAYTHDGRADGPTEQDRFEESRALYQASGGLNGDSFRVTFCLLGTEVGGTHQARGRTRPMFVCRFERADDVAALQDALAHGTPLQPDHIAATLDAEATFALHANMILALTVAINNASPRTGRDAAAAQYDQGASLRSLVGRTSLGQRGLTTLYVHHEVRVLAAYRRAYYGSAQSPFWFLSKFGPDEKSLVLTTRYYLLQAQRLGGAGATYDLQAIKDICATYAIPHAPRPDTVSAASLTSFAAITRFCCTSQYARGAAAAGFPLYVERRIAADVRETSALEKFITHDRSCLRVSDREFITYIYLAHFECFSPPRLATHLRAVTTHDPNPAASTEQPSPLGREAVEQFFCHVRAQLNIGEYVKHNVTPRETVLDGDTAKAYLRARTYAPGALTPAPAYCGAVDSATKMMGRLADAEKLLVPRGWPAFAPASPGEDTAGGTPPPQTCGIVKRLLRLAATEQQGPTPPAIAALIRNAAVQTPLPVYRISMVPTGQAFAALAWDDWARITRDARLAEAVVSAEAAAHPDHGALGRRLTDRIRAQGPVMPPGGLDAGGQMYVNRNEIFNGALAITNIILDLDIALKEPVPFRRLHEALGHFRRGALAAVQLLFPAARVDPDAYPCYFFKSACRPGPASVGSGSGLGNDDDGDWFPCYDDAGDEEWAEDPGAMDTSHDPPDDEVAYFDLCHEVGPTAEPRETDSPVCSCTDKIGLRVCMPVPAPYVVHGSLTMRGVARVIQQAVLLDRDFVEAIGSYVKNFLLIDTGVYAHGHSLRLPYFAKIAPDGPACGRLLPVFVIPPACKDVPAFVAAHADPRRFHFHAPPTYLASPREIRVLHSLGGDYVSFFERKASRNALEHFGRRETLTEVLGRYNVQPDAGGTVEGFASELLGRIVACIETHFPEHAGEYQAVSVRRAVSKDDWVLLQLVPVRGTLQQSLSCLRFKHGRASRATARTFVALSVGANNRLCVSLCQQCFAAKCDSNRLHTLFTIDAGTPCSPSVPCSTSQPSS
T1 sequence (P10189 whole entry): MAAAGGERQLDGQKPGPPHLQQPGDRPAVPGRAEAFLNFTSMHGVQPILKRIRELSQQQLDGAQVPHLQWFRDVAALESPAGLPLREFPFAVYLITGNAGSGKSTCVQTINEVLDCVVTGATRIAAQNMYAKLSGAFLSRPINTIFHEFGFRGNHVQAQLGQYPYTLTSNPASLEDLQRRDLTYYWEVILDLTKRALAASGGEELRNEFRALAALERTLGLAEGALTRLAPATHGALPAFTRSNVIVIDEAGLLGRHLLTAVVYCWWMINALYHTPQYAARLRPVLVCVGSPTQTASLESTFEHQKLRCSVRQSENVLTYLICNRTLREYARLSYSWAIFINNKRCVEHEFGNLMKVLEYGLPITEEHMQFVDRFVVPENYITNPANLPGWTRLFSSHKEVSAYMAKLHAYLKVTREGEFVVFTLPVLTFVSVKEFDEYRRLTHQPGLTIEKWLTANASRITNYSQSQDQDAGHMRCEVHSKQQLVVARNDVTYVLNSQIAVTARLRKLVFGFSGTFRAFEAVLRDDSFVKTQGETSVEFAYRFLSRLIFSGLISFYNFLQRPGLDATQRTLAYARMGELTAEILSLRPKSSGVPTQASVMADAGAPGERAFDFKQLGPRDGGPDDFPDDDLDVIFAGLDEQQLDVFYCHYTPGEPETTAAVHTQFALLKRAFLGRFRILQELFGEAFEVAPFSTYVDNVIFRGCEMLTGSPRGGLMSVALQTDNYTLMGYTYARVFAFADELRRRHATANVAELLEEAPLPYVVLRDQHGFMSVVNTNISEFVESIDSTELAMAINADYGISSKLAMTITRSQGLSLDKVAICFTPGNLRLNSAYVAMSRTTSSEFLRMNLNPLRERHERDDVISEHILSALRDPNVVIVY

SMILES | IC50 (HSV-1 helicase-primase; Group 1 Table 1 entries) [nM] | EC50 (HSV-1 strain F or KOS; [1]) [nM] | EC50 (HCMV (strain AD169); [2]) [nM] | further results
CNc1nc(-c2ccc(NC(=O)CN(Cc3ccccc3)C(=O)c3ccccc3)cc2)cs1 [Example 6] |  |  |  | IC50 (HSV-1 helicase-primase; Group 1 Table 3 entries): 330 nM; EC50 (HSV-1 strain F or KOS; Human alphaherpesvirus 1, BHK-21, Group 1 Table 3 entries): 12 nM; EC50 (HCMV (strain AD169); Human betaherpesvirus 5, AD169, Hs68, Group 1 Table 3 entries): 16000 nM
Nc1nc(-c2ccc(NC(=O)CN(Cc3ccccc3)C(=O)CC3CCCCC3)cc2)cs1 [Example 38] | 88 | 16 | 4600 | 
Nc1nc(-c2ccc(NC(=O)CN(Cc3ccccc3)C(=O)c3ccncc3)cc2)cs1 [Example 29] | 240 | 35 | 27000 | 
Nc1nc(-c2ccc(NC(=O)CN(Cc3ccccc3)C(=O)Cc3ccccc3)cc2)cs1 [Example 26] | 500 | 50 | 15000 | 
CN(CC(=O)Nc1ccc(-c2csc(N)n2)cc1)Cc1ccccc1 [Example 15] | 3300 | 950 | 6500 | 
CC(C)(C)OC(=O)N(CC(=O)Nc1ccc(-c2csc(N)n2)cc1)Cc1ccncc1 [Example 90] | 58 | 15 | 88000 | 
Nc1nc(-c2ccc(NC(=O)CN(Cc3ccccc3)C(=O)c3cccnc3)cc2)cs1 [Example 28] | 430 | 130 | 35000 | 
Nc1nc(-c2ccc(NC(=O)CN(Cc3ccccc3)C(=O)CC3CCCC3)cc2)cs1 [Example 39] | 59 | 9 | 8500 | 
CC(C)(C)CN(CC(=O)Nc1ccc(-c2csc(N)n2)cc1)C(=O)C1CCCCC1 [Example 80] | 960 | 310 | 9500 | 
Nc1nc(-c2ccc(NC(=O)CN(Cc3ccccc3)C(=O)Cc3ccccn3)cc2)cs1 [Example 31] | 1600 | 400 | 8100 | 
Nc1nc(-c2ccc(NC(=O)CN(Cc3ccccc3)C(=O)c3cnccn3)cc2)cs1 [Example 33] | 1100 | 170 | 20000 | 
Nc1nc(-c2ccc(NC(=O)CN(Cc3ccccc3)C(=O)c3cccs3)cc2)cs1 [Example 32] | 420 | 40 | 8500 | 
CC(C)(C)OC(=O)N(CC(=O)Nc1ccc(-c2csc(N)n2)cc1)Cc1ccccc1 [Example 85] | 16 | 10 | 12000 | 
CC(C)(C)OC(=O)N(CCC(=O)Nc1ccc(-c2csc(N)n2)cc1)CC1CCCCC1 [Example 21] |  |  |  | IC50 (HSV-1 helicase-primase; [3]): 28 nM; EC50 (HSV-1 strain F or KOS; [4]): 450 nM; EC50 (HCMV (strain AD169); [5]): 6500 nM
C[C@@H](c1ccccc1)N(CC(=O)Nc1ccc(-c2csc(N)n2)cc1)C(=O)OC(C)(C)C [Example 89] | 98 | 36 | 38000 | 
C[C@@H](c1ccccc1)N(CCC(=O)Nc1ccc(-c2csc(N)n2)cc1)Cc1ccccc1 [Example 19] |  |  |  | IC50 (HSV-1 helicase-primase; [3]): 460 nM; EC50 (HSV-1 strain F or KOS; [4]): 890 nM; EC50 (HCMV (strain AD169); [5]): 4000 nM
CN(C)CCN(CC(=O)Nc1ccc(-c2csc(N)n2)cc1)C(=O)C1CCCCC1 [Example 140] | 48000 | 9200 | 29000 | 
Nc1nc(-c2ccc(NC(=O)CN(Cc3ccccc3)C(=O)C3CCCCC3)cc2)cs1 [Example 34] | 26 | 4 | 15000 | 
Nc1nc(-c2ccc(NC(=O)CN(Cc3ccccc3)C(=O)c3ccccn3)cc2)cs1 [Example 27] | 1000 | 280 | > 36000 | 
Nc1nc(-c2ccc(NC(=O)CN(Cc3ccccc3)C(=O)C3CCCC3)cc2)cs1 [Example 36] | 41 | 5 | 16000 | 
CN[C@@H](Cc1ccccc1)C(=O)Nc1ccc(-c2csc(N)n2)cc1 [Example 8] |  |  |  | IC50 (HSV-1 helicase-primase; Group 1 Table 5 entries): 45000 nM; EC50 (HSV-1 strain F or KOS; Human alphaherpesvirus 1, BHK-21, Group 1 Table 5 entries): 14000 nM; EC50 (HCMV (strain AD169); Human betaherpesvirus 5, AD169, Hs68, Group 1 Table 5 entries): 33000 nM
Nc1nc(-c2ccc(NC(=O)CCN(Cc3ccccc3)CC3CCCCC3)cc2)cs1 [Example 17] |  |  |  | IC50 (HSV-1 helicase-primase; [3]): 760 nM; EC50 (HSV-1 strain F or KOS; [4]): 1800 nM; EC50 (HCMV (strain AD169); [5]): > 5000 nM
C[C@@H](c1ccccc1)N(CC(=O)Nc1ccc(-c2csc(N)n2)cc1)C(=O)c1ccncc1 [Example 58] | 190 | 40 | 30000 | 
Nc1nc(-c2ccc(NC(=O)CN(Cc3ccccc3)S(=O)(=O)c3ccccc3)cc2)cs1 [Example 97] | 310 | 130 | 15000 | 
C[C@@H](NCCC(=O)Nc1ccc(-c2csc(N)n2)cc1)c1ccccc1 [Example 25] |  |  |  | IC50 (HSV-1 helicase-primase; [3]): 13600 nM; EC50 (HSV-1 strain F or KOS; [4]): 2600 nM; EC50 (HCMV (strain AD169); [5]): > 6000 nM

Reference: patent publication US6288091A, “Antiherpes virus compounds and methods for their preparation and use” (Boehringer Ingelheim Ltd., priority 1999, dated 2001)
